Measurements from patent US11974997B2, “RORgamma modulators and uses thereof” (Genfit, priority 2017, dated 2024).

Assays:
[1] = cited from earlier work
[2] = biological target: T1, RORγt ligand-binding domain (RORγt-LBD) (Homo sapiens, UniProt P51449); assay: Time-resolved FRET (TR-FRET) RORγt coactivator assay; assay type: biochemical; conditions: GST-RORγ-LBD, biotinylated RIP140 peptide, 2 hours; read-out: IC50, coactivator displacement
T1 construct: 20 nM recombinantly expressed RORγ-LBD fused to GST
T1 sequence (P51449 269-508 limits assumed): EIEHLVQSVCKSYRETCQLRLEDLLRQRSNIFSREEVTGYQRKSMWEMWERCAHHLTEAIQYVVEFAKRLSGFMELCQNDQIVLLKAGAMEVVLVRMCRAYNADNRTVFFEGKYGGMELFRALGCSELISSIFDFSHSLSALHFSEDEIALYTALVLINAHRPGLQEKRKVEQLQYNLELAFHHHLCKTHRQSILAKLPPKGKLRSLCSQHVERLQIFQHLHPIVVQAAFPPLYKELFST
Description: Time-resolved FRET (TR-FRET) RORγt coactivator assay was used to identify RORγ modulator compounds with ligand-dependent coactivator displacement. The assay uses a d2-labeled anti-GST antibody, synthetic N-terminally biotinylated peptide which is derived from nuclear receptor coactivator protein RIP140, and a RORγt ligand-binding domain (RORγt-LBD) that is tagged with glutathione-S-transferase (GST). The influence of compounds on the RORγ-peptide interaction relies on the binding dependent energy transfer from a donor to an acceptor fluorophor attached to the binding partner of interest. […] For reduction of background from compound fluorescence, TR-FRET method makes use of generic fluorophore labels and time resolved detection.
The assays were done in a final volume of 20 μl in a 384 well plate in a CHAPS buffer (2 mM CHAPS; 1 mM DTT, 2 mM EDTA; 0.1% BSA), containing 20 nM recombinantly expressed RORγ-LBD fused to GST, 30 nM N-terminally biotinylated peptide, 1 nM streptavidin-terbium conjugate and 20 nM d2 labeled-anti-GST. Test compounds were diluted using 10 mM stock solution. The range of the final compound concentrations used in this test was from 0.3 nM to 30 μM (logarithmic scale). DMSO content of the samples was kept at 1%. The assay was equilibrated for 2 hours in the dark at room temperature in 384 well plates (Falcon). The signal was detected by an Ultra384 reader (TECAN). […] Compounds that promote coactivator displacement induce a concentration-dependent decrease in time-resolved fluorescent signal. Data were collected and analyzed using GraphPad Prism software (GraphPad Software V5.02, San Diego California USA). IC50 in μM and Emax in % were reported for each compound.

human RORγt = biological target: T2, human RORγt (Homo sapiens, UniProt P51449); assay: RORE Luciferase/RORγt transactivation assay; assay type: cell-based; conditions: COS-7 cells, human IL-17 promoter reporter + RORγt plasmid, 20 h; read-out: IC50, inhibition of RORγt activity (luciferase)
T2 construct: the full-length cDNA of human RORγt; expressed in transfected cells; host or cells: COS-7 (monkey kidney)
T2 sequence (P51449 1-497 isoform P51449-2): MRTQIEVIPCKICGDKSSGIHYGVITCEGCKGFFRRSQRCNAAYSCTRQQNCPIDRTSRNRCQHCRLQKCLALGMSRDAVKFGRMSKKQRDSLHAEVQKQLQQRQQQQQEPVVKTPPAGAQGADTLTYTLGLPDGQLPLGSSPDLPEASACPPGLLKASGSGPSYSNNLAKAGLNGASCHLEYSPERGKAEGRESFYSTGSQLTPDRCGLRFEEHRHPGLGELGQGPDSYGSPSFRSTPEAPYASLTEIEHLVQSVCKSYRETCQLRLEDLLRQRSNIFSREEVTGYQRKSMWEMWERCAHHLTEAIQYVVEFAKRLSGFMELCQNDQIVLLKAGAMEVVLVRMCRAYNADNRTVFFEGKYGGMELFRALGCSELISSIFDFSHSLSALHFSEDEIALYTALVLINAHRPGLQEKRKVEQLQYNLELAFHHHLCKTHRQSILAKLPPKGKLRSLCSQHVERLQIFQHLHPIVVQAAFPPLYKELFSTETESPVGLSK
Protocol: It is well known that RORγ binds to a conserved non-coding sequence (CNS) enhancer element in the IL-17 promoter.
Culture medium was changed every 2 days.
The 4.3 Kb human IL-17 promoter containing the RORγ-specific CNS enhancer element was PCR amplified from human genomic DNA and cloned into a pGL3-TKLuc2Cp reporter plasmid.
The luciferase reporter plasmid and the RORγt overexpression plasmid were transfected into COS-7 cell line using 4 μLJetPEITM/μg of DNA. Briefly, 150 ng of DNA (ration ½ between RORE-Tk Luc2Cp and cDNA RORγt or the empty vector for the negative control) was served to transfect adherent COS-7 cells in a […] culture flask, in complete medium (see cos-7 cell line culture).
Cells were then detached (using trypsin) and washed by centrifugation at 300 g for 10 minutes. Cell pellet was resuspended in serum free/phenol red free DMEM and seeded in 384 well plates at a density of 10000 cells/well and then incubated for 4h at 37° C.
Compounds were dissolved in 100% DMSO to obtain 10 mM stock solutions. For each compound, test concentrations were diluted in serum free/phenol red free DMEM using the Genesis Freedom 200™ (TECAN) and added to the cells to obtain a 0.3% DMSO final concentration (in a final volume of 40 μL per well).
The luciferase activity was then measured with 40 μL/well steady-Glo Luciferase assay system (Promega, Madison, WI) and after incubation at room temperature for 30 minutes. The luminescence was estimated using the Ultra384 reader (TECAN). Data were collected and analyzed using GraphPad Prism software (GraphPad Software V5.02, San Diego California USA). IC50 in μM and Emax in % were reported for each compound.

IC50 [2]	IC50 (human RORγt)	Structure (SMILES)	reduction in the Psoriasis Area Severity Index (PASI) score relative to placebo ([1]; 350 mg dose group)	placebo-adjusted PASI score reduction ([1]; 700 mg dose group)	plasma IL-17 levels relative to placebo ([1]; patients with moderate to severe psoriasis)
< 100 nM	100 to 1000 nM	Cc1ccc(C(NC(=O)Cc2cnc(N3CCN(S(C)(=O)=O)CC3)nc2)c2ccc(C)o2)c(N2CCCCC2)c1 (stereo not shown) [Cpd.4, 2-[2-(4-methanesulfonylpiperazin-1-yl)pyrimidin-5-yl]-N-{[4-methyl-2-(piperidin-1-yl)phenyl](5-methylfuran-2-yl)methyl}acetamide]			
< 100 nM	100 to 1000 nM	CC(=O)N1CCN(c2ncc(CC(=O)NC(c3ccc(C)o3)c3ccc(C)cc3N3CCCCC3)cn2)CC1 (stereo not shown) [Cpd.13, 2-[2-(4-acetylpiperazin-1-yl)pyrimidin-5-yl]-N-{[4-methyl-2-(piperidin-1-yl)phenyl](5-methylfuran-2-yl)methyl}acetamide]			
< 100 nM	100 to 1000 nM	Cc1ccc(C(NC(=O)Cc2cnc(N3CCC(S(C)(=O)=O)CC3)nc2)c2ccc(C)o2)c(N2CCCCC2)c1 (stereo not shown) [Cpd.5, 2-[2-(4-methanesulfonylpiperidin-1-yl)pyrimidin-5-yl]-N-{[4-methyl-2-(piperidin-1-yl)phenyl](5-methylfuran-2-yl)methyl}acetamide]			
< 100 nM	< 100 nM	Cc1ccc(C(NC(=O)Cc2cnc(N3CCCC(S(C)(=O)=O)C3)nc2)c2ccc(C)o2)c(N2CCCCC2)c1 (stereo not shown) [Cpd.17, 2-[2-(3-methanesulfonylpiperidin-1-yl)pyrimidin-5-yl]-N-{[4-methyl-2-(piperidin-1-yl)phenyl](5-methylfuran-2-yl)methyl}acetamide]			
100 to 1000 nM	100 to 1000 nM	CC(=O)C1CCN(c2ncc(CC(=O)NC(c3ccc(C)o3)c3ccc(C)cc3N3CCCCC3)cn2)CC1 (stereo not shown) [Cpd.8, 2-[2-(4-acetylpiperidin-1-yl)pyrimidin-5-yl]-N-{[4-methyl-2-(piperidin-1-yl)phenyl](5-methylfuran-2-yl)methyl}acetamide]			
< 100 nM	1000 to 10000 nM	Cc1ccc(C(NC(=O)Cc2cnc(N3CCC(C(=O)O)CC3)nc2)c2ccc(C)o2)c(N2CCCCC2)c1 (stereo not shown) [Cpd.9, 1-{5-[({[4-methyl-2-(piperidin-1-yl)phenyl](5-methylfuran-2-yl)methyl}carbamoyl)methyl]pyrimidin-2-yl}piperidine-4-carboxylic acid]			
100 to 1000 nM	1000 to 10000 nM	CC(=O)C1CCN(c2ncc(CC(=O)NC(c3ccc(C)o3)c3ccc(C)cc3C)cn2)CC1 (stereo not shown) [Cpd.6, 2-[2-(4-acetylpiperidin-1-yl)pyrimidin-5-yl]-N-[(2,4-dimethylphenyl)(5-methylfuran-2-yl)methyl]acetamide]			
100 to 1000 nM	1000 to 10000 nM	COC(=O)C1CCN(c2ncc(CC(=O)NC(c3ccc(C)o3)c3ccc(C)cc3N3CCCCC3)cn2)CC1 (stereo not shown) [Cpd.7, methyl 1-{5-[({[4-methyl-2-(piperidin-1-yl)phenyl](5-methylfuran-2-yl)methyl}carbamoyl)methyl]pyrimidin-2-yl}piperidine-4-carboxylate]			

The remaining lines, values behind:

Structure (SMILES)	IC50 [2]	IC50 (human RORγt)	reduction in the Psoriasis Area Severity Index (PASI) score relative to placebo ([1]; 350 mg dose group)	placebo-adjusted PASI score reduction ([1]; 700 mg dose group)	plasma IL-17 levels relative to placebo ([1]; patients with moderate to severe psoriasis)
CCS(=O)(=O)c1ccc(CNC(=O)c2cnc3c(c2)CN(C[C@H]2CC[C@H](C(F)(F)F)CC2)[C@H]3C(C)C)nc1 [VTP-43742]			24%	30%	reduced
Cc1ccc(C(NC(=O)Cc2ccc(N3CCN(S(C)(=O)=O)CC3)nc2)c2ccc(C)o2)c(N2CCCCC2)c1 (stereo not shown) [Cpd.1, 2-[6-(4-methanesulfonylpiperazin-1-yl)pyridin-3-yl]-N-{[4-methyl-2-(piperidin-1-yl)phenyl](5-methylfuran-2-yl)methyl}acetamide]	< 100 nM	100 to 1000 nM			
CC(=O)N1CCN(c2ncc(C3(C(=O)NC(c4ccc(C)o4)c4ccc(C)cc4N4CCCCC4)CC3)cn2)CC1 (stereo not shown) [Cpd.11, 1-[2-(4-acetylpiperazin-1-yl)pyrimidin-5-yl]-N-{[4-methyl-2-(piperidin-1-yl)phenyl](5-methylfuran-2-yl)methyl}cyclopropane-1-carboxamide]	< 100 nM	< 100 nM			
CC(=O)N1CCN(c2cncc(CC(=O)NC(c3ccc(C)o3)c3ccc(C)cc3N3CCCCC3)c2)CC1 (stereo not shown) [Cpd.14, 2-[5-(4-acetylpiperazin-1-yl)pyridin-3-yl]-N-{[4-methyl-2-(piperidin-1-yl)phenyl](5-methylfuran-2-yl)methyl}acetamide]	< 100 nM	100 to 1000 nM			
Cc1ccc(C(NC(=O)Cc2ccc(N3CCNCC3)nc2)c2ccc(C)o2)c(N2CCCCC2)c1 (stereo not shown) [Cpd.10, N-{[4-methyl-2-(piperidin-1-yl)phenyl](5-methylfuran-2-yl)methyl}-2-[6-(piperazin-1-yl)pyridin-3-yl]acetamide]	< 100 nM	100 to 1000 nM			
CC(=O)N1CCN(c2cccc(CC(=O)NC(c3ccc(C)o3)c3ccc(C)cc3N3CCCCC3)n2)CC1 (stereo not shown) [Cpd.12, 2-[6-(4-acetylpiperazin-1-yl)pyridin-2-yl]-N-{[4-methyl-2-(piperidin-1-yl)phenyl](5-methylfuran-2-yl)methyl}acetamide]	< 100 nM	< 100 nM			
Cc1ccc(C(NC(=O)Cc2ccc(N3CCC(S(C)(=O)=O)CC3)nc2)c2ccc(C)o2)c(N2CCCCC2)c1 (stereo not shown) [Cpd.2, 2-[6-(4-methanesulfonylpiperidin-1-yl)pyridin-3-yl]-N-{[4-methyl-2-(piperidin-1-yl)phenyl](5-methylfuran-2-yl)methyl}acetamide]	< 100 nM	100 to 1000 nM			
CC(=O)N1CCN(c2nccc(CC(=O)NC(c3ccc(C)o3)c3ccc(C)cc3N3CCCCC3)n2)CC1 (stereo not shown) [Cpd.15, 2-[2-(4-acetylpiperazin-1-yl)pyrimidin-4-yl]-N-{[4-methyl-2-(piperidin-1-yl)phenyl](5-methylfuran-2-yl)methyl}acetamide]	< 100 nM	100 to 1000 nM			
Cc1ccc(C(NC(=O)Cc2cccc(N3CCN(C(=O)C(F)(F)F)CC3)n2)c2ccc(C)o2)c(N2CCCCC2)c1 (stereo not shown) [Cpd.16, N-{[4-methyl-2-(piperidin-1-yl)phenyl](5-methylfuran-2-yl)methyl}-2-{6-[4-(trifluoroacetyl)piperazin-1-yl]pyridin-2-yl}acetamide]	100 to 1000 nM	100 to 1000 nM			
Cc1ccc(C(NC(=O)Cc2ccc(N3CCN(C(=O)OC(C)(C)C)CC3)nc2)c2ccc(C)o2)c(N2CCCCC2)c1 (stereo not shown) [Cpd.3, tert-butyl 4-{5-[({[4-methyl-2-(piperidin-1-yl)phenyl](5-methylfuran-2-yl)methyl}carbamoyl)methyl]pyridin-2-yl}piperazine-1-carboxylate]	100 to 1000 nM	100 to 1000 nM			
